Numbering of substitutions follows the chain as printed. Read-outs that look alike come from different tables or passages of the source.
Columns and labels:
[1] = target: T1, 5-HT1A A222V (Homo sapiens, UniProt P08908, A222V); settings: Goa
T1 sequence (P08908 1-422 A222V): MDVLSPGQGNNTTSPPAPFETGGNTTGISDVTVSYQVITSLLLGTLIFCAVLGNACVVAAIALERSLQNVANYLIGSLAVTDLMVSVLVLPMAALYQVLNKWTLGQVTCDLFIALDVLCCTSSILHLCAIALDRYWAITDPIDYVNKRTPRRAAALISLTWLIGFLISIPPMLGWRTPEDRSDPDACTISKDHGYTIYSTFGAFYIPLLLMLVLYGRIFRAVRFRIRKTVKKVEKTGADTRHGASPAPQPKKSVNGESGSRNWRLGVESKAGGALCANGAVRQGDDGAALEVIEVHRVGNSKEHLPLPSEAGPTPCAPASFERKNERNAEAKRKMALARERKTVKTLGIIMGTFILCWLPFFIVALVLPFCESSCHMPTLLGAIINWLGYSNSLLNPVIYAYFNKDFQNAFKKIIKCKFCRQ

[2] = target: T2, 5-HT1A, Gi1 D315P (Homo sapiens, UniProt P08908); settings: activity comparable to vehicle
T2 sequence (P08908 1-422): T1 sequence (P08908 1-422 A222V) with V222A

[3] = target: T3, 5-HT1A (Homo sapiens, UniProt P08908); experiment: BRET Gi1 activation at WT 5-HT1A; settings: Gi1, WT 5-HT1A, compared to antagonist methiothepin
T3 sequence (P08908 1-422): T1 sequence (P08908 1-422 A222V) with V222A

[4] = target: T3, 5-HT1A; experiment: 5-HT1A-mediated cAMP inhibition; assay type: cell-based
[5] = target: T4, 5-HT1A S199A (Homo sapiens, UniProt P08908, S199A); settings: Gi1, 5-HT1A S199A
T4 sequence (P08908 1-422 S199A): T1 sequence (P08908 1-422 A222V) with S199A, V222A

[6] = target: T5, 5-HT1A F112A (Homo sapiens, UniProt P08908, F112A); settings: Goa
T5 sequence (P08908 1-422 F112A): T1 sequence (P08908 1-422 A222V) with F112A, V222A

[7] = target: T6, 5-HT1A I189A (Homo sapiens, UniProt P08908, I189A); settings: 5-HT1A I189 mutant
T6 sequence (P08908 1-422 I189A): T1 sequence (P08908 1-422 A222V) with I189A, V222A

[8] = target: T4, 5-HT1A S199A; settings: Gz
[9] = target: T4, 5-HT1A S199A; experiment: cell-based; settings: EC50, Goa
[10] = target: T3, 5-HT1A; experiment: BRET Goa activation at WT 5-HT1A
[11] = target: T5, 5-HT1A F112A; settings: Gz
[12] = target: T5, 5-HT1A F112A; settings: Gi1, 5-HT1A F112A

For `CN1CC2c3ccccc3Oc3ccc(Cl)cc3C2C1` (stereo not drawn) [Asenapine], the “Emax (%WT 5-HT)” value [1] was 64.7 %WT 5-HT, the “signaling through Gi1 D315P” value [2] was “loss of concentration-dependent agonist signaling” and the “Gi1 activation” value [3] was “no significant activity”. For the same compound, the “agonist character in cAMP inhibition” value [4] was “partial agonists”, the “activation” value [5] was “no significant activity” and the “effect of F112A mutation on efficacy” value [6] was “seemingly ablates”. The “effect of I189 mutation on activity” value [7] was “ablates asenapine activity”, the “activation” value [8] was “no significant activity” and the EC50 [9] was 6.84 nM. It also gave an EC50 [10] of 9.12 nM.
With `O=C1CC2(CCCC2)CC(=O)N1CCCCN1CCN(c2ncccn2)CC1` [Buspirone] the “effect of F112A mutation on efficacy” value [6] was “seemingly ablates efficacy”, the “effect of F112A mutation on efficacy” value [11] was “seemingly ablates efficacy” and the “effect of F112A mutation on efficacy” value [12] was “seemingly ablates efficacy”.
For `O=C1CC2(CCCC2)CC(=O)N1CCCCN1CCN(c2nsc3ccccc23)CC1` [Tiospirone], the “agonist character in cAMP inhibition” value ([4]; HEK293T, compared to 5-HT) was “partial agonists”.
With `CN1CCN2c3ccccc3Cc3ccccc3C2C1` (stereo not drawn) [mianserin] the “agonist character in cAMP inhibition” value ([4]; HEK293T, compared to 5-HT) was “nearly a full agonist”.
